From patent US10231939B2, “Hydroxytyrosol and oleuropein compositions for induction of DNA damage, cell death and LSD1 inhibition” (priority 2012, dated 2019)

How the values were obtained:
Experiment in all cases: Cell proliferation (Cell Titer-Blue Assay)
[1] = test system: K562 cells; format: cell-based, human; conditions: for EC50: Homo sapiens
Text: (§1) Human chronic myelogenous leukemia K562 cells (ATCC No. CCL-243), human large B-lymphocyte non-Hodgkin's lymphoma LCL cells, human leukemic monocyte lymphoma U937 cells (ATCC No. CRL-1593.2), human prostate adenocarcinoma PC3 (ATCC No. CRL-1435) and human gastric carcinoma SNU-16 cells (ATCC No. CRL-5974) were maintained in complete-[…] Park Memorial Institute (RPMI) 1640 medium supplemented with 20 mmol/L HEPES (pH 7.4; GIBCO-Invitrogen, Carlsbad, Calif., USA), 10% (v/v) fetal bovine serum (FBS), 2 mmol/L L-glutamine (GIBCO-Invitrogen), and 80 units gentamicin (GIBCO-Invitrogen). Cells were cultured in suspension in a humidified atmosphere of 5% (v/v) CO2 at 37° C. and were maintained in exponential growth phase. For maintenance, cells were passaged twice per week and seeded at ratios 1:10. Cell proliferation was determined using the Cell Titer-Blue Assay kit (Promega, Madison, Wis., USA). Cells were seeded at 10,000 cells per well in black flat bottom 96-well plates (Nalge Nunc, Penfield, N.Y., USA) and treated with serial doses of hydroxytyrosol (0-3200 μM) and oleuropein (0-12800 μM) for 24, 48 and 120 hours at 37° C., 5% (v/v) CO2. Following incubation with the test samples, Cell-Titer Blue reagent (20 μl per 100 μL) was added to each well and mixed gently for 5 sec prior to 4 hr incubation at 37° C. in a humidified atmosphere of 5% CO2. Fluorescence intensity (λex=550 nm and λem=615 nm) was determined using a Perkin Elmer Victor3 multilabel microplate counter (PerkinElmer, Waltham, Mass., USA). Data were expressed as % relative cell viability compared to untreated cells after correction of subtracting the media control fluorescence reading.

[2] = test system: LCL cells; format: cell-based, human; conditions: for EC50: Homo sapiens
Text: as §1

[3] = test system: PC3 cells; format: cell-based, human; conditions: for EC50: Homo sapiens, PC-3
Text: as §1

[4] = test system: U937 cells; format: cell-based, human; conditions: for EC50: Homo sapiens, U-937
Text: as §1

[5] = test system: Hep G2 cells; format: cell-based, human; conditions: for EC50: Homo sapiens, HepG2
Procedure: (§2) Human cutaneous T cell lymphoma MyLa cells expressing CD4^+ (ECACC No. 95051032) and CD8^+ (ECACC No. 95051033) were obtained from the European Culture Collection of Cell Cultures (ECACC; CAMR, Salisbury, UK) and maintained in complete-RPMI 1640 medium supplemented with 2 mM glutamine (GIBCO-Invitrogen), 10% (v/v) human AB serum (Lonza, Basel, Switzerland) and 100 u/mL IL-2 (Sigma-Aldrich, USA) or 100 u/mL IL-2 (Sigma-Aldrich, USA) with 100 u/mL IL-4 (R&D Systems, MN, USA) respectively. Cells were cultured in suspension in a humidified atmosphere of 5% (v/v) CO2 at 37° C. and were maintained in exponential growth phase. For maintenance, cells were passaged three times per week and seeded at ratios 1:2. Liver hepatocellular carcinoma Hep G2 cells (ATCC No. […]) were maintained in RPMI-1640 supplemented with 10% fetal bovine serum (FBS), and were cultured in 75 cm^2 T-flask and maintained at 37° C. in 5% CO2 humidified incubator. Cell proliferation was determined using the Cell Titer-Blue Assay kit (Promega, Madison, Wis., USA). Cells were seeded at 10,000 cells per well in black flat bottom 96-well plates (Nalge Nunc, Penfield, N.Y., USA) and treated with serial doses of hydroxytyrosol (0-3200 μM) and oleuropein (0-12800 μM) for 24, 48 and 120 hours at 37° C., 5% (v/v) CO2. Following incubation with the test samples, Cell-Titer Blue reagent (20 μl per 100 μL) was added to each well and mixed gently for 5 sec prior to 4 hr incubation at 37° C. in a humidified atmosphere of 5% CO2. Fluorescence intensity (λex=550 nm and λem=615 nm) was determined using a Perkin Elmer Victor3 multilabel microplate counter (PerkinElmer, Waltham, Mass., USA). Data were expressed as % relative cell viability compared to untreated cells after correction of subtracting the media control fluorescence reading.

[6] = test system: MyLa CD4+ cells; format: cell-based, human; conditions: for EC50: Homo sapiens
Procedure: as §2

[7] = test system: MyLa CD8+ cells; format: cell-based, human; conditions: for EC50: Homo sapiens
Procedure: as §2

[8] = test system: SNU-16 cells; format: cell-based; conditions: Homo sapiens
Text: as §1

SMILES	EC50 ([1]; K562, 24 hr) [µM]	EC50 ([1]; K562, 48 hr) [µM]	EC50 ([1]; K562, 120 hr) [µM]	EC10 (concentration required to reduce the cell viability of the population to 10%) ([1]; K562, 120 hr) [µM]	EC10 (concentration required to reduce the cell viability of the population to 10%) ([2]; 120 hr) [µM]	EC50 ([2]; 24 hr) [µM]	EC50 ([2]; 48 hr) [µM]	EC50 ([2]; 120 hr) [µM]	EC50 ([3]; PC3, 24 hr) [µM]	EC50 ([3]; PC3, 48 hr) [µM]	EC50 ([3]; PC3, 120 hr) [µM]	EC10 (concentration required to reduce the cell viability of the population to 10%) ([3]; PC3, 120 hr) [µM]	EC50 ([4]; U937, 24 hr) [µM]	EC50 ([4]; U937, 48 hr) [µM]	EC50 ([4]; U937, 120 hr) [µM]	EC10 (concentration required to reduce the cell viability of the population to 10%) ([4]; U937, 120 hr) [µM]	EC10 (concentration required to reduce the cell viability of the population to 10%) ([5]; Hep-G2, 120 hr) [µM]	EC50 ([5]; Hep-G2, 24 hr) [µM]	EC50 ([5]; Hep-G2, 48 hr) [µM]	EC50 ([5]; Hep-G2, 120 hr) [µM]	further results
C/C=C1/[C@H](O[C@@H]2O[C@H](CO)[C@@H](O)[C@H](O)[C@H]2O)OC=C(C(=O)OC)[C@H]1CC(=O)OCCc1ccc(O)c(O)c1 [OL, oleuropein]	337	950	585	756	1240	403	1100	640	2290	3800	2500	4600	730	2800	1250	2600	2600	703	2400	1300	EC10 (concentration required to reduce the cell viability of the population to 10%) ([6]; 120 hr): 4800 µM; EC50 ([6]; 24 hr): 647 µM; EC50 ([6]; 48 hr): 3800 µM; EC50 ([6]; 120 hr): 3400 µM; EC10 (concentration required to reduce the cell viability of the population to 10%) ([7]; 120 hr): 3020 µM; EC50 ([7]; 24 hr): 647 µM; EC50 ([7]; 48 hr): 3600 µM; EC50 ([7]; 120 hr): 270 µM; EC50 ([8]; SNU-16, 24 hr): 2820 µM; EC50 ([8]; SNU-16, 48 hr): 800 µM
OCCc1ccc(O)c(O)c1 [HT, 4-(2-hydroxyethyl)-1,2-benzenediol]	150	150	91	176	177	370	200	94	2120	320	215	630	563	500	250	370	360	427	470	205	EC10 (concentration required to reduce the cell viability of the population to 10%) ([6]; 120 hr): 760 µM; EC50 ([6]; 24 hr): 1010 µM; EC50 ([6]; 48 hr): 870 µM; EC50 ([6]; 120 hr): 400 µM; EC10 (concentration required to reduce the cell viability of the population to 10%) ([7]; 120 hr): 650 µM; EC50 ([7]; 24 hr): 460 µM; EC50 ([7]; 48 hr): 450 µM; EC50 ([7]; 120 hr): 230 µM; EC50 ([8]; SNU-16, 24 hr): 1100 µM; EC50 ([8]; SNU-16, 48 hr): 80 µM
